Laboratory results taken from PubChem BioAssay (NCI).
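Interpolation was linear, between the two tested concentrations surrounding the appropriate level; five concentrations were tested over 48 hours in 96-well plates. GI50: concentration for 50% inhibition of growth. TGI: total growth inhibition.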

What was measured:
Experiment in all cases: growth of human tumour cells (NCI), 48 h
786-0 renal = test system: 786-0 renal
A498 renal = test system: A498 renal
A549 NSCLC = test system: A549 NSCLC
ACHN renal = test system: ACHN renal
BT-549 breast = test system: BT-549 breast
CAKI-1 renal = test system: CAKI-1 renal
CCRF-CEM leukemia = test system: CCRF-CEM leukemia
COLO 205 colon = test system: COLO 205 colon
DU-145 prostate = test system: DU-145 prostate
EKVX NSCLC = test system: EKVX NSCLC
HCC-2998 colon = test system: HCC-2998 colon
HCT-116 colon = test system: HCT-116 colon
HCT-15 colon = test system: HCT-15 colon
HL-60(TB) leukemia = test system: HL-60(TB) leukemia
HOP-62 NSCLC = test system: HOP-62 NSCLC
HOP-92 NSCLC = test system: HOP-92 NSCLC
HS 578T breast = test system: HS 578T breast
HT29 colon = test system: HT29 colon
IGROV1 ovarian = test system: IGROV1 ovarian
K-562 leukemia = test system: K-562 leukemia
KM12 colon = test system: KM12 colon
LOX IMVI melanoma = test system: LOX IMVI melanoma
M14 melanoma = test system: M14 melanoma
MALME-3M melanoma = test system: MALME-3M melanoma
MCF7 breast = test system: MCF7 breast
MDA-MB-231 breast = test system: MDA-MB-231 breast
MDA-MB-435 = test system: MDA-MB-435
MOLT-4 leukemia = test system: MOLT-4 leukemia
NCI-H226 lung = test system: NCI-H226 lung
NCI-H23 lung = test system: NCI-H23 lung
NCI-H460 lung = test system: NCI-H460 lung
NCI-H522 lung = test system: NCI-H522 lung
NCI/ADR-RES ovarian = test system: NCI/ADR-RES ovarian
OVCAR-3 ovarian = test system: OVCAR-3 ovarian
OVCAR-4 ovarian = test system: OVCAR-4 ovarian
OVCAR-5 ovarian = test system: OVCAR-5 ovarian
OVCAR-8 ovarian = test system: OVCAR-8 ovarian
PC-3 prostate = test system: PC-3 prostate
RPMI-8226 leukemia = test system: RPMI-8226 leukemia
RXF 393 renal = test system: RXF 393 renal
SF-268 CNS = test system: SF-268 CNS
SF-295 CNS = test system: SF-295 CNS
SF-539 CNS = test system: SF-539 CNS
SK-MEL-2 melanoma = test system: SK-MEL-2 melanoma
SK-MEL-28 melanoma = test system: SK-MEL-28 melanoma
SK-MEL-5 melanoma = test system: SK-MEL-5 melanoma
SK-OV-3 ovarian = test system: SK-OV-3 ovarian
SN12C renal = test system: SN12C renal
SNB-19 CNS = test system: SNB-19 CNS
SNB-75 CNS = test system: SNB-75 CNS
SR leukemia = test system: SR leukemia
SW-620 colon = test system: SW-620 colon
T-47D breast = test system: T-47D breast
TK-10 renal = test system: TK-10 renal
U251 CNS = test system: U251 CNS
UACC-257 melanoma = test system: UACC-257 melanoma
UACC-62 melanoma = test system: UACC-62 melanoma
UO-31 renal = test system: UO-31 renal

## CSc1ccc(/C=C2\C=C(CC(=O)NCc3ccc(C(=O)c4ccccc4)cc3)c3cc(F)ccc32)cc1
786-0 renal
  GI50: 125 nM
  TGI: 2660 nM
A498 renal
  GI50: 36.4 nM
  TGI: 902 nM
A549 NSCLC
  GI50: 137 nM
  TGI: 4800 nM
ACHN renal
  GI50: 261 nM
  TGI: 12300 nM
BT-549 breast
  GI50: 1430 nM
  TGI: 21900 nM
CAKI-1 renal
  GI50: 74.1 nM
  TGI: 8230 nM
CCRF-CEM leukemia
  GI50: 33.7 nM
  TGI: 38900 nM
COLO 205 colon
  GI50: 190 nM
  TGI: 431 nM
DU-145 prostate
  GI50: 40.1 nM
  TGI: 877 nM
EKVX NSCLC
  GI50: 423 nM
  TGI: > 100000 nM
HCC-2998 colon
  GI50: 54.4 nM
  TGI: 756 nM
HCT-116 colon
  GI50: 36.7 nM
  TGI: 2760 nM
HCT-15 colon
  GI50: 49.2 nM
  TGI: > 51300 nM
HL-60(TB) leukemia
  GI50: 40.9 nM
  TGI: 208 nM
HOP-62 NSCLC
  GI50: 63.3 nM
  TGI: 3380 nM
HOP-92 NSCLC
  GI50: 179 nM
  TGI: 6000 nM
HS 578T breast
  GI50: 45.7 nM
  TGI: 13000 nM
HT29 colon
  GI50: 36.8 nM
  TGI: 2730 nM
IGROV1 ovarian
  GI50: 84.8 nM
  TGI: 17700 nM
K-562 leukemia
  GI50: 39.3 nM
  TGI: > 100000 nM
KM12 colon
  GI50: 33.5 nM
  TGI: 1480 nM
LOX IMVI melanoma
  GI50: 69 nM
  TGI: 6470 nM
M14 melanoma
  GI50: 44.9 nM
  TGI: 4160 nM
MALME-3M melanoma
  GI50: 215 nM
  TGI: 44700 nM
MCF7 breast
  TGI: 12200 nM
MDA-MB-231 breast
  GI50: 64.3 nM
  TGI: 5300 nM
MDA-MB-435
  GI50: < 11.2 nM
  TGI: 51.5 nM
MOLT-4 leukemia
  GI50: 150 nM
  TGI: > 36700 nM
NCI-H226 lung
  GI50: 95.1 nM
  TGI: 903 nM
NCI-H23 lung
  GI50: 36 nM
  TGI: 2890 nM
NCI-H460 lung
  GI50: 37.7 nM
  TGI: 4390 nM
NCI-H522 lung
  GI50: 28.7 nM
  TGI: 211 nM
NCI/ADR-RES ovarian
  GI50: 32.8 nM
  TGI: 187 nM
OVCAR-3 ovarian
  GI50: 24.5 nM
  TGI: 64.3 nM
OVCAR-4 ovarian
  GI50: 127 nM
  TGI: 20200 nM
OVCAR-5 ovarian
  GI50: 61.8 nM
  TGI: 24900 nM
OVCAR-8 ovarian
  GI50: 49.7 nM
  TGI: 8120 nM
PC-3 prostate
  GI50: 47.3 nM
  TGI: 13100 nM
RPMI-8226 leukemia
  GI50: 64.8 nM
  TGI: > 68300 nM
RXF 393 renal
  GI50: 30.7 nM
  TGI: 292 nM
SF-268 CNS
  GI50: 138 nM
  TGI: 15100 nM
SF-295 CNS
  GI50: 45.3 nM
  TGI: 6900 nM
SF-539 CNS
  GI50: 38.1 nM
  TGI: 1170 nM
SK-MEL-2 melanoma
  GI50: 49 nM
  TGI: 7040 nM
SK-MEL-28 melanoma
  GI50: 68.8 nM
  TGI: 19800 nM
SK-MEL-5 melanoma
  GI50: 35 nM
  TGI: 365 nM
SK-OV-3 ovarian
  GI50: 39.9 nM
  TGI: 704 nM
SN12C renal
  GI50: 59 nM
  TGI: 23000 nM
SNB-19 CNS
  GI50: 70.5 nM
  TGI: > 100000 nM
SNB-75 CNS
  GI50: 43.3 nM
  TGI: 6250 nM
SR leukemia
  GI50: 30.6 nM
  TGI: 26200 nM
SW-620 colon
  GI50: 43.1 nM
  TGI: > 100000 nM
T-47D breast
  GI50: 1990 nM
  TGI: 44000 nM
TK-10 renal
  GI50: 329 nM
  TGI: 6930 nM
U251 CNS
  GI50: 37.9 nM
  TGI: 2330 nM
UACC-257 melanoma
  GI50: 572 nM
  TGI: > 100000 nM
UACC-62 melanoma
  GI50: 59.1 nM
  TGI: 10700 nM
UO-31 renal
  GI50: 360 nM
  TGI: 13000 nM
